{"source": "patent US20020197219A1", "about": "“Composition containing a peptide and a pigment and the use thereof in darkening the skin” (priority 2001, published 2002)", "key": {"[1]": {"test_system": "keratinocyte-melanocyte co-cultures (Human HaCaT keratinocytes, human primary melanocytes)", "assay": "Induced pigmentation in keratinocyte-melanocyte co-cultures, DOPA staining and computerized image analysis", "type": "cell-based", "conditions": "three daily treatments; for Mean area: DOPA stain, relative pigmented area; for % increase: versus control", "description": "The peptide Peptide 1 and various pigments were tested, alone or in combination, with keratinocyte-melanocyte cultures for their effect on cell pigmentation, using DOPA staining and computerized image analysis. The pigments that were tested were copper chloride from Sigma (St. Louis, Mo.) and the water-soluble melanin derivative Melasyn-100™ from San-mar laboratories, Inc. (Elmsford, N.Y.). The pigments were tested at concentrations ranging from 0.0001% (W/V) to 0.1% (W/V) and peptides were tested at 50 μM.\nThe assay was conducted in the following manner. Human HaCaT keratinocytes (Boukamp P., et al., J Cell Biol 106, 3, 761-771 (1988)) were maintained in Dulbecco's Modified Eagle's Medium (DMEM) containing 10% fetal bovine serum (FBS), 4.5 mg/ml glucose, 2 mM L-glutamine, 50 U/ml penicillin and 50 μg/ml streptomycin (Life Technologies, Gaithersburg, Md.). Cells were maintained at <80% confluency in 5% CO2 (v/v) and were used in experimental procedures up to culture passage 15. Human primary melanocytes (Clonetics, San Diego, Calif. or Cascade Biologics, Portland, Oreg.) were maintained according to manufacturer's instructions. To establish keratinocyte-melanocyte co-cultures, 6×10^4 melanocytes were plated in each well of a 24 well plate and maintained according to manufacturer's instructions.\nMelanocytes were rinsed three times with melanocyte growth media without PMA and keratinocytes (6×10^4) were plated to establish the co-cultures in this media. Co-cultures were treated for three days with test peptides and pigments, and assayed for cell viability and pigment level on the forth day. Cell viability was assayed using alamarBlue™ (Acumed International, West Lake, Ohio) following manufacturer's instructions. No change in viability was observed following three daily treatments with all tested material. All in vitro experiments were performed in triplicates, and were repeated at least three times.\nFollowing three daily treatments, the co-cultures were briefly fixed (10% buffered formalin from Fisher Scientific, 15 minutes), washed three times with Phosphate-buffered saline (PBS, from Life Technologies) and stained with L-3,4-Dihydroxyphenylalanine (DOPA, from Sigma, St. Louis, Mo.) 0.1% in PBS, for 5 hours at 37° C., followed by two PBS washes and formalin (10%, overnight) fixation. DOPA is a substrate for tyrosinase, therefore an increase in staining represents increased tyrosinase activity and pigment production. DOPA-stained monolayers were used for image analysis. All images were obtained and analyzed with Image Pro Plus 3.0 software (Media Cybernetics, Silver Spring, Md.). Parameters measured were surface area of stained material within melanocyte and keratinocytes and the total surface area of the cells in the culture, and the relative pigmented area was calculated. A value of 100% was assigned to untreated controls, and values of treatment groups were normalized to their relevant controls. In all experiments there was no difference between PBS-treated cells and untreated controls. Data are presented with standard deviation (SigmaPlot® 5.0, SPSS Science, Chicago, Ill.).\nForskolin (Sigma, St. Louis, Mo.), a known inducer of pigmentation, served as a positive control and a reference point. Forskolin was administered at 1% (W/V)."}, "[2]": {"test_system": "Dark skinned Yucatan microswine", "assay": "Induced pigmentation in vivo, F&M-stained skin sections of topically treated swine", "design": "key: −1: Slight lightening; 0: No change; 1: Minimal increase in pigment deposition; 2: Increased pigment deposition; 3: Strong increase in pigment deposition, some increase in caps; 4: Strong increase in pigment deposition, strong increase in caps", "conditions": "topical, twice a day, five days/week, eight or nine weeks; average of all sites of responsive swine; positive controls 1% (W/V), peptides 250 or 500 μM, pigments 1% or 5% (W/V)", "description": "Compositions of the present invention were tested for their ability to induce in vivo pigmentation in skin cells in the following experiment. Dark skinned Yucatan microswine (Charles River, Portland, Me.) were housed in appropriately sized cages in an environmentally controlled room with a 12-hour light-12-hour dark photoperiod and supplied with food and water ad libitum. Animal care was based on the “Guide for the Care and Use of Laboratory Animals”, NIH Publication No. 85-23. Twenty μl of test peptides were applied topically, twice a day, five days/week, for eight or nine weeks, on the dorsum of the swine. Treatments of individual swine were always arranged in a head to tail order on one side, and in a tail to head order on the other side of the animal. Biopsies were taken using standard techniques.\nSections from the skin biopsies were stained with Hematoxylin and Eosin (H&E), or with Fontana-Mason (F&M), using standard procedures (Sheenan DC, Hrapckak BB, eds., Theory and Practice of Histo-technology. p. 223, 277, The C. V. Mosby Co., St. Louis (1980)). F&M staining identifies silver nitrate reducing molecules. In skin, this non-specific stain identifies primarily melanin. At least three sections per biopsy were processed. […]\nF&M-stained histological skin sections were evaluated for the change in pigment deposition within the treated site. […]"}}}
{"molecule": "[Cl][Cu][Cl]", "note": "[CuCl2, copper chloride]", "values": [{"measurement": "Mean area", "setting": "[1]; 0.001% (W/V)", "result": 0.173}, {"measurement": "% increase", "setting": "[1]; 0.001% (W/V)", "result": 120, "unit": "%"}, {"measurement": "Mean area", "setting": "[1]; 0.1% (W/V)", "result": 0.246}, {"measurement": "% increase", "setting": "[1]; 0.1% (W/V)", "result": 212, "unit": "%"}]}
{"molecule": "C=C[C@@]1(C)CC(=O)[C@]2(O)[C@@]3(C)[C@@H](O)CCC(C)(C)[C@@H]3[C@H](O)[C@H](OC(C)=O)[C@@]2(C)O1", "note": "[Forskolin]", "values": [{"measurement": "Score (change in pigment deposition)", "setting": "[2]", "result": 1}]}
{"molecule": "H2-Val-Gly-Val-Ala-Pro-Gly-NH2 (H-VGVAPG-NH2) [Peptide 1]", "values": [{"measurement": "Mean area", "setting": "[1]; 50 μM", "result": 0.131}, {"measurement": "% increase", "setting": "[1]; 50 μM", "result": 66.6, "unit": "%"}, {"measurement": "Score (change in pigment deposition)", "setting": "[2]", "result": 1}]}
